Reference: patent US10172868B2, “Substituted quinazolines for inhibiting kinase activity” (NeuPharma, Inc., priority 2013, dated 2019)
Each block holds one molecule with its values, some of them ahead of it.

Legend:
EGFR (ErbB1) T790M = EGFR (ErbB1) T790M (Homo sapiens (Human), UniProt P00533, T790M); test: Z'-LYTE kinase inhibition assay, EGFR T790M; type: biochemical; details: read-out: % inhibition against EGFR T790M (Compound at 1 μM)
Protocol: Inhibitory activities of compounds against BTK, EGFR and EGFR mutants (EGFR L858R, EGFR T790M, EGFR L858R/T790M), FGFR1, FGFR2, JAK2, JAK3 and KDR were measured by Invitrogen using Z'-LYTE® Method as briefly described in the following. Test Compounds are screened in 1% DMSO (final) in the well. For 10 point titrations, 3-fold serial dilutions are conducted from the starting concentration. All ATP Solutions are diluted to a 4× working concentration in Kinase Buffer (50 mM HEPES pH 7.5, 0.01% BRIJ-35, 10 mM MgCl2, 1 mM EGTA). Peptide/Kinase Mixtures are diluted to a 2× working concentration in the appropriate Kinase Buffers as described below. (iii) Peptide/Kinase Mixtures for Measurement of EGFR (ErbB1) T790M: […] After the 1 hour Kinase Reaction incubation, 5 μL of a 1:64 dilution of Development Reagent B is added. Reaction starts by 30-second shaking of mixture consisting of 2.5 μL 4× test compound, […] 2× kinase reaction mixture and 2.5 μL 4×ATP Solution on Bar-coded Corning, low volume NBS, black 384-well plate (Corning Cat. #3676). Then the mixture is incubated for 60-minute at room temperature for the kinase reaction, followed by addition of 5 μL of a 1:1024 dilution of development reagent A and 30-second plate shake. The mixture is then incubated for another 60-minute at room temperature for development reaction. Finally fluorescence is read by plate reader.

FGFR2 = FGFR2 (Homo sapiens (Human), UniProt P21802); test: Z'-LYTE kinase inhibition assay, FGFR2; type: biochemical; details: read-out: IC50 against FGFR2
Protocol: (§1) Inhibitory activities of compounds against BTK, EGFR and EGFR mutants (EGFR L858R, EGFR T790M, EGFR L858R/T790M), FGFR1, FGFR2, JAK2, JAK3 and KDR were measured by Invitrogen using Z'-LYTE® Method as briefly described in the following.
(§2) Test Compounds are screened in 1% DMSO (final) in the well. For 10 point titrations, 3-fold serial dilutions are conducted from the starting concentration. All ATP Solutions are diluted to a 4× working concentration in Kinase Buffer (50 mM HEPES pH 7.5, 0.01% BRIJ-35, 10 mM MgCl2, 1 mM EGTA). Peptide/Kinase Mixtures are diluted to a 2× working concentration in the appropriate Kinase Buffers as described below.
(v) Peptide/Kinase Mixtures for Measurement of FGFR2:
The 2×FGFR2/Tyr 04 mixture is prepared in 50 mM HEPES pH 7.5, 0.01% BRIJ-35, 10 mM MgCl2, 4 mM MnCl2, 1 mM EGTA, 2 mM DTT. The final 10 μL Kinase Reaction consists of 0.19-2.36 ng FGFR2 and 2 μM Tyr 04 in 50 mM HEPES pH 7.5, 0.01% BRIJ-35, 10 mM MgCl2, 2 mM MnCl2, 1 mM EGTA, 1 mM DTT. After the 1 hour Kinase Reaction incubation, 5 μL of a 1:64 dilution of Development Reagent B is added.
Reaction starts by 30-second shaking of mixture consisting of 2.5 μL 4× test compound, […] 2× kinase reaction mixture and 2.5 μL 4×ATP Solution on Bar-coded Corning, low volume NBS, black 384-well plate (Corning Cat. #3676). […] Finally fluorescence is read by plate reader. […]

KDR (VEGFR2) = KDR (VEGFR2) (Homo sapiens (Human), UniProt P35968); test: Z'-LYTE kinase inhibition assay, KDR; type: biochemical; details: read-out: IC50 against KDR
Protocol: as §1, §2
(v) Peptide/Kinase Mixtures for Measurement of KDR (VEGFR2):
The 2×KDR (VEGFR2)/Tyr 01 mixture is prepared in 50 mM HEPES pH 7.5, 0.01% BRIJ-35, 10 mM MgCl2, 1 mM EGTA. The final 10 μL Kinase Reaction consists of 0.5-11.7 ng KDR (VEGFR2) and 2 μM Tyr 01 in 50 mM HEPES pH 7.5, 0.01% BRIJ-35, 10 mM MgCl2, 1 mM EGTA. After the 1 hour Kinase Reaction incubation, 5 μL of a 1:256 dilution of Development Reagent B is added.
(§3) Reaction starts by 30-second shaking of mixture consisting of 2.5 μL 4× test compound, […] 2× kinase reaction mixture and 2.5 μL 4×ATP Solution on Bar-coded Corning, low volume NBS, black 384-well plate (Corning Cat. #3676). Then the mixture is incubated for 60-minute at room temperature for the kinase reaction, followed by addition of 5 μL of a 1:1024 dilution of development reagent A and 30-second plate shake. The mixture is then incubated for another 60-minute at room temperature for development reaction. Finally fluorescence is read by plate reader.
(§4) To determine IC50 of a compound against EGFR, EGFR mutant and other kinases, a series of concentrations of the compound were tested for the inhibition. […] The scale utilized in Table 4 is as follows: +++ less than 100 nM, ++ 100-500 nM and + greater than 500 nM.

JAK3 = JAK3 (Homo sapiens (Human), UniProt P52333); test: Z'-LYTE kinase inhibition assay, JAK3; type: biochemical; details: read-out: IC50 against JAK3
Protocol: as §1, §2
(v) Peptide/Kinase Mixtures for Measurement of JAK3:
The 2×JAK3/Tyr 06 mixture is prepared in 50 mM HEPES pH 7.5, 0.01% BRIJ-35, 10 mM MgCl2, 1 mM EGTA. The final 10 μL Kinase Reaction consists of 0.29-1.34 ng JAK3 and 2 μM Tyr 06 in 50 mM HEPES pH 7.5, 0.010/% BRIJ-35, 10 mM MgCl2, 1 mM EGTA. After the 1 hour Kinase Reaction incubation, 5 μL of a 1:64 dilution of Development Reagent A is added.
as §3, §4

H1975 tumor xenografts = test: Inhibition of tumor growth in H1975 xenograft model; type: in vivo, BALB/c female nude mice; details: QD x 14; for Tumor Volume Pre-treatment: baseline before treatment
Protocol: H1975 cells were implanted in BALB/c female nude mice and grown as tumor xenografts. When tumors achieved 120-200 mm^3, mice were assigned into treatment and control groups using randomized block design based upon their tumor volumes. Each group contained 6 tumor-bearing mice. Tumors were measured twice weekly in two dimensions using a caliper, and the tumor volume was calculated from two-dimensional measurements using the equation V=0.5×a×b^2 where a and b are the long and short diameters of the tumor, respectively. Relative tumor volume (RTV) was defined as TVt/TVi, the ratio of the volume on a given day (TVt) and the volume at the start of treatment (TVi). Relative tumor growth rate (T/C) was defined as RTVT/RTVC, the ratio of relative tumor volume of treatment group (RTVT) and relative tumor volume of control group (RTVC) on a given day.

[1] = 30 mg/kg, Intraperitoneal injection

Chain of KDR (VEGFR2) (P35968 20-1356): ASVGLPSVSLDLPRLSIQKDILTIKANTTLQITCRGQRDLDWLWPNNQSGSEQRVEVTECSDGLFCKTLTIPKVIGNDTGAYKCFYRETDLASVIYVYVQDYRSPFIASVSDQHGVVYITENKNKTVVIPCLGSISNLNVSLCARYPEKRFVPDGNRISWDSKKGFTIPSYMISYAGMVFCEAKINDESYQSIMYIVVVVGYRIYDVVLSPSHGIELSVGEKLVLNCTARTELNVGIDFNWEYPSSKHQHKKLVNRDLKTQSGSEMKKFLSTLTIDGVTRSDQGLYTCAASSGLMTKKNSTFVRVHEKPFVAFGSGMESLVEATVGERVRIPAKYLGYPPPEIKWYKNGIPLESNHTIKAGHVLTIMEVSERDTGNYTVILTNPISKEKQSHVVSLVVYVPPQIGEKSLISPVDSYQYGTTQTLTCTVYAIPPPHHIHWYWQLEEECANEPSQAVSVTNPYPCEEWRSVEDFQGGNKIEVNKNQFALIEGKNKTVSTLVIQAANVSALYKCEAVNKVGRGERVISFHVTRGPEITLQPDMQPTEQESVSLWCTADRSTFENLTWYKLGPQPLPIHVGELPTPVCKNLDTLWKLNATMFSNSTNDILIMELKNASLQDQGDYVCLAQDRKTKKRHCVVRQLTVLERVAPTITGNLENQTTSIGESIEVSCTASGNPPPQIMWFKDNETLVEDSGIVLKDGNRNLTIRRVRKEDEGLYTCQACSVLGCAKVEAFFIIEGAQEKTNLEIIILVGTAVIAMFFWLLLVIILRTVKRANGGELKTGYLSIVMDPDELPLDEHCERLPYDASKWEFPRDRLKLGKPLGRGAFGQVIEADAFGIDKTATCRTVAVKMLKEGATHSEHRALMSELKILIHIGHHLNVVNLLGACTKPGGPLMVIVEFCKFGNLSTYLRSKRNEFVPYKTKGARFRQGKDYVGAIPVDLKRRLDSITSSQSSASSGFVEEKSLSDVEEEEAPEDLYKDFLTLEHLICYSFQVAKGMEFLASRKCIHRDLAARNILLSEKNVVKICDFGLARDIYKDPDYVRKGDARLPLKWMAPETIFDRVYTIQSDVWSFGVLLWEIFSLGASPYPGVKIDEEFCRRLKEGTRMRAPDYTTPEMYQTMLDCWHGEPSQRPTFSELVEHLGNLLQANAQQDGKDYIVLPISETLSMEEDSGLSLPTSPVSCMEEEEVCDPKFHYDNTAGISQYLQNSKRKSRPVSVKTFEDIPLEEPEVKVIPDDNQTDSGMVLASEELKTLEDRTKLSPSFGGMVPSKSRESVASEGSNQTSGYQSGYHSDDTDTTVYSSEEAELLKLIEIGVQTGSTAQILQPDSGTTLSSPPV
Chain of EGFR (ErbB1) T790M (P00533 25-1210 T790M): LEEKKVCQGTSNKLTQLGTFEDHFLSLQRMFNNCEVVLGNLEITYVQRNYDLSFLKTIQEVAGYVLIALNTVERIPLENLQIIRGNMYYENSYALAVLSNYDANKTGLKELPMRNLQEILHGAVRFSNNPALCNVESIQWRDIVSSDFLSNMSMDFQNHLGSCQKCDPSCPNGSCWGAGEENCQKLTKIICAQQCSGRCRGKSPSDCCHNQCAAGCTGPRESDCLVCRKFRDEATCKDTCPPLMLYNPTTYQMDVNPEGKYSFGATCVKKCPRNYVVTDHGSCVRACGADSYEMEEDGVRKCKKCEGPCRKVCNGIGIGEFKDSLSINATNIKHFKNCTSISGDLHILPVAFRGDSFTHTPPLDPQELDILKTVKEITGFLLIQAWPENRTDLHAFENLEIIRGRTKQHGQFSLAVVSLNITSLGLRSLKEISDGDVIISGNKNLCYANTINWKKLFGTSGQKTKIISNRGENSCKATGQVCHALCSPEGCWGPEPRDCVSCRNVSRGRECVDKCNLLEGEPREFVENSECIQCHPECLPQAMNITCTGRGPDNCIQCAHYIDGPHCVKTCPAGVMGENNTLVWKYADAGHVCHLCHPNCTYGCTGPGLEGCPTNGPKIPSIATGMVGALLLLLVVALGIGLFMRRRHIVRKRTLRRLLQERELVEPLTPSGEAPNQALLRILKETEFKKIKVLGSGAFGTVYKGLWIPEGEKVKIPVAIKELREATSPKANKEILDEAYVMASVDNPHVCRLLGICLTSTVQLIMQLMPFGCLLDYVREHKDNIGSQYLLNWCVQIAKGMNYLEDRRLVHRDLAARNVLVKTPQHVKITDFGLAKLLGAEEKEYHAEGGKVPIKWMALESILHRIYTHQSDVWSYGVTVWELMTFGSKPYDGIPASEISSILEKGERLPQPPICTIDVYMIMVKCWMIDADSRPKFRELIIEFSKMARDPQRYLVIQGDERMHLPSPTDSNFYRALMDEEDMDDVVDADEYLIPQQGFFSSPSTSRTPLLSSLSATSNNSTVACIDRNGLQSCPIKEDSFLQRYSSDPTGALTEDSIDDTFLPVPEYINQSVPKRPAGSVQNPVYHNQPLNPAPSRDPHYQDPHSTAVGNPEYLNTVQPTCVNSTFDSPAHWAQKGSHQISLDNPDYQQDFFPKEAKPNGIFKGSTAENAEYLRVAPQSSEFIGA
Chain of JAK3 (P52333 whole entry): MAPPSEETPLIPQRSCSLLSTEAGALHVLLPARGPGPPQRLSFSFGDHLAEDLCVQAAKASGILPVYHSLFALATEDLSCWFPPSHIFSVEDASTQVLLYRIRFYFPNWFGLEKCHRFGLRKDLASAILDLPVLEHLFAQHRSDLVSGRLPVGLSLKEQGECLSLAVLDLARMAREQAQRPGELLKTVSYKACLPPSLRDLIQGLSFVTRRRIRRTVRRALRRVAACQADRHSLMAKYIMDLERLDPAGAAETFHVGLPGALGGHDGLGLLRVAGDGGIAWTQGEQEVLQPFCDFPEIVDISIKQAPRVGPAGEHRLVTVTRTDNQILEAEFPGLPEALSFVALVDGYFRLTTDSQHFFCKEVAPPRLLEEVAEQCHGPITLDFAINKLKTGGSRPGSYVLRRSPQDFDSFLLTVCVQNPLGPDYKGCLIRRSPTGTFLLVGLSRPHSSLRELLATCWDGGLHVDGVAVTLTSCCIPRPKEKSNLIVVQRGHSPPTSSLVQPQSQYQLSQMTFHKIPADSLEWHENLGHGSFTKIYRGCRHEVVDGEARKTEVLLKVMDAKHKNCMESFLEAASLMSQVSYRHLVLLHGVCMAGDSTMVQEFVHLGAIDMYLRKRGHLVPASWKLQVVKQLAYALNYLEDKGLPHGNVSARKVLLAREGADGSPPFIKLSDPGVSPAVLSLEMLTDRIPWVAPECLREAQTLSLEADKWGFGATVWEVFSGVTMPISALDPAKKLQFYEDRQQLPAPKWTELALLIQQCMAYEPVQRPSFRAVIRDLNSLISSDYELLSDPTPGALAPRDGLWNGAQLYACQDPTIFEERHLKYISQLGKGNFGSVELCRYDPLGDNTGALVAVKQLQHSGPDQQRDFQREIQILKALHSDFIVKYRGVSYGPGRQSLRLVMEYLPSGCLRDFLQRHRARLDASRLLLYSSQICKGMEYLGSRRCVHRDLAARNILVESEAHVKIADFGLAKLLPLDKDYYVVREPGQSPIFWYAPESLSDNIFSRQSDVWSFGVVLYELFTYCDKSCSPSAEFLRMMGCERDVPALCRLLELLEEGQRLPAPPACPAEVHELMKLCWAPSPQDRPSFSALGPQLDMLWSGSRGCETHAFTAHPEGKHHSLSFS
Chain of FGFR2 (P21802 22-821): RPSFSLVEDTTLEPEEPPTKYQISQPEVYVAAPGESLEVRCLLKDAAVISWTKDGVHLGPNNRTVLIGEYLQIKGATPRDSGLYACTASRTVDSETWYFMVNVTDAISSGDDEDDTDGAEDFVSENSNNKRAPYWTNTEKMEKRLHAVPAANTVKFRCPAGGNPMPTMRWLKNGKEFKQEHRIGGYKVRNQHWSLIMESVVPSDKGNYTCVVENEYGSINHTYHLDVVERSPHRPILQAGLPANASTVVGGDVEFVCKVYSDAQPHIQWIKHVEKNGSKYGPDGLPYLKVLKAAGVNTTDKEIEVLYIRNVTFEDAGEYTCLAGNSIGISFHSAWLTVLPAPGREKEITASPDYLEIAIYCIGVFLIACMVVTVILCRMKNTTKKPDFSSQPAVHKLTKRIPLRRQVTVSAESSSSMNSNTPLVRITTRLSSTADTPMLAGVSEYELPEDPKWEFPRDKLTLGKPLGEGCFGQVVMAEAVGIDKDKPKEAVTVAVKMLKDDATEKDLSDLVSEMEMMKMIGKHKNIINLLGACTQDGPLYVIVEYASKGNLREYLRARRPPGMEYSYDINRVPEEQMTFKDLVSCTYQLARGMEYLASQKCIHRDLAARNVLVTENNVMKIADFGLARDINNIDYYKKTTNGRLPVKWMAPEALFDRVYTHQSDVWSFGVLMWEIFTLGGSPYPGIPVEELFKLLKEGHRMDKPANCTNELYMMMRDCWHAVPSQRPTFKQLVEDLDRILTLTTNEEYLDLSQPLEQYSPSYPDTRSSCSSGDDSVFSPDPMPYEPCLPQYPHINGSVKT

- inhibition at 1 µM (EGFR (ErbB1) T790M): < 50%
SMILES: Clc1cccc(-c2cccc3cnc(Nc4ccc(N5CCOCC5)cc4)nc23)c1 [Example C008, 8-(3-chlorophenyl)-N-(4-morpholinophenyl)quinazolin-2-amine]

- inhibition at 1 µM (EGFR (ErbB1) T790M): < 50%
SMILES: Fc1cccc(-c2cccc3cnc(Nc4ccc(N5CCOCC5)cc4)nc23)c1 [Example C009, 8-(3-fluorophenyl)-N-(4-morpholinophenyl)quinazolin-2-amine]

- inhibition at 1 µM (EGFR (ErbB1) T790M): < 50%
SMILES: Clc1ccccc1-c1cccc2cnc(Nc3ccc(N4CCOCC4)cc3)nc12 [Example C011, 8-(2-chlorophenyl)-N-(4-morpholinophenyl)quinazolin-2-amine]

- inhibition at 1 µM (EGFR (ErbB1) T790M): < 50%
SMILES: C=CC(=O)Nc1cccc(-c2nccc3c(N)nc(Nc4ccc(N5CCOCC5)cc4)nc23)c1 [Example C005, N-(3-(4-amino-2-((4-morpholinophenyl)amino)pyrido[3,4-d]pyrimidin-8-yl)phenyl)acrylamide]

SMILES: C=CC(=O)Nc1cccc(-c2cccc3cnc(Nc4ccc(N5CCN(C)CC5)cc4)nc23)c1 [Example C021, N-(3-(2-((4-(4-methylpiperazin-1-yl)phenyl)amino)quinazolin-8-yl)phenyl)acrylamide]
- IC50 (FGFR2): < 100 nM
- IC50 (KDR (VEGFR2)): < 100 nM
- IC50 (JAK3): < 100 nM
- T/C (relative tumor growth rate) (H1975 tumor xenografts; 60 mg/kg, Oral): 30.5%
- Tumor Volume Post-treatment (H1975 tumor xenografts; 60 mg/kg, Oral): 633.5 mm^3
- Tumor Volume Pre-treatment (H1975 tumor xenografts; 60 mg/kg, Oral): 152.5 mm^3

SMILES: C=CC(=O)Nc1cccc(-c2cccc3cnc(Nc4ccc(N5CCN(CCO)CC5)cc4)nc23)c1 [Example C059, N-(3-(2-((4-(4-(2-hydroxyethyl)piperazin-1-yl)phenyl)amino)quinazolin-8-yl)phenyl)acrylamide]
- IC50 (KDR (VEGFR2)): < 100 nM
- IC50 (JAK3): < 100 nM
- T/C (relative tumor growth rate) (H1975 tumor xenografts; 60 mg/kg, Oral): 35.3%
- Tumor Volume Post-treatment (H1975 tumor xenografts; 60 mg/kg, Oral): 746.4 mm^3
- Tumor Volume Pre-treatment (H1975 tumor xenografts; 60 mg/kg, Oral): 151.6 mm^3

- inhibition at 1 µM (EGFR (ErbB1) T790M): < 50%
SMILES: Fc1ccc(Cl)cc1-c1cccc2cnc(Nc3ccc(N4CCOCC4)cc3)nc12 [Example C007, 8-(5-chloro-2-fluorophenyl)-N-(4-morpholinophenyl)quinazolin-2-amine]

- inhibition at 1 µM (EGFR (ErbB1) T790M): < 50%
SMILES: c1ccc(-c2cccc3cnc(Nc4ccc(N5CCOCC5)cc4)nc23)cc1 [Example C004, N-(4-morpholinophenyl)-8-phenylquinazolin-2-amine]

- inhibition at 1 µM (EGFR (ErbB1) T790M): > 50%
SMILES: C=CC(=O)Nc1cccc(-c2cccc3cnc(Nc4ccc(N5CCOCC5)cc4)nc23)c1 [Example C001, N-(3-(2-((4-morpholinophenyl)amino)quinazolin-8-yl)phenyl)acrylamide]

- inhibition at 1 µM (EGFR (ErbB1) T790M): > 50%
SMILES: C=CC(=O)Nc1cccc(-c2nccc3cnc(Nc4ccc(N5CCOCC5)cc4)nc23)c1 [Example C012, N-(3-(2-((4-morpholinophenyl)amino)pyrido[3,4-d]pyrimidin-8-yl)phenyl)acrylamide]

- inhibition at 1 µM (EGFR (ErbB1) T790M): < 50%
SMILES: Fc1ccccc1-c1cccc2cnc(Nc3ccc(N4CCOCC4)cc3)nc12 [Example C010, 8-(2-fluorophenyl)-N-(4-morpholinophenyl)quinazolin-2-amine]

- inhibition at 1 µM (EGFR (ErbB1) T790M): > 50%
SMILES: C=CC(=O)Nc1cccc(-c2cccc3cnc(Nc4ccc(N5CCN(C)CC5)cc4OC)nc23)c1 [Example C003, N-(3-(2-((2-methoxy-4-(4-methylpiperazin-1-yl)phenyl)amino)quinazolin-8-yl)phenyl)acrylamide]

- IC50 (JAK3): < 100 nM
SMILES: C=CC(=O)Nc1cccc(-c2cccc3cnc(Nc4ccc(N5CCN(C)CC5)cc4F)nc23)c1 [Example C044, N-(3-(2-((2-fluoro-4-(4-methylpiperazin-1-yl)phenyl)amino)quinazolin-8-yl)phenyl)acrylamide]

- inhibition at 1 µM (EGFR (ErbB1) T790M): > 50%
SMILES: C=CC(=O)Nc1cccc(-c2cccc3cnc(Nc4ccc(N5CCOCC5)cc4OC)nc23)c1 [Example C002, N-(3-(2-((2-methoxy-4-morpholinophenyl)amino)quinazolin-8-yl)phenyl)acrylamide]

SMILES: C=CC(=O)Nc1cccc(-c2cccc3cnc(Nc4ccc(N5CCN(C)CC5)nc4)nc23)c1 [Example C041, N-(3-(2-((6-(4-methylpiperazin-1-yl)pyridin-3-yl)amino)quinazolin-8-yl)phenyl)acrylamide]
- IC50 (KDR (VEGFR2)): < 100 nM
- IC50 (JAK3): < 100 nM
- T/C (relative tumor growth rate) (H1975 tumor xenografts; [1]): 48.7%
- Tumor Volume Post-treatment (H1975 tumor xenografts; [1]): 1021.2 mm^3
- Tumor Volume Pre-treatment (H1975 tumor xenografts; [1]): 151.7 mm^3
